Experimental data reported in PubChem BioAssay AID1963966 (Molecular Pharmacology Branch, DTP, NCI, 2024).
Where “and” joins values, the source holds several entries; their conditions need not be identical. Identical values can stand only once.

System: 935938-334-R-J1-PDC spheroids with HUVEC/MSC, viability
Test: Anticancer human tumor 935938-334-R-J1-PDC patient-derived small intestine adenocarcinoma cell line growth inhibition [PI3K]
Conditions: for viability, T/C: stronger effect = lower value
Method in brief: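 Stroma-containing spheroids: tumor line, pooled-donor HUVEC, hMSC. Treatments: targeted agents with PI3K inhibitors. Dosing: clinically relevant, half-log spacing, 10 microM ceiling without known Cmax. Read-out: cell viability.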

[1] = curve of first compound, second compound 0.00316 µM
[2] = curve of first compound, second compound 0.01 µM
[3] = curve of first compound, second compound 0.0316 µM
[4] = curve of first compound, second compound 0.1 µM
[5] = curve of first compound, second compound 0.316 µM
[6] = curve of first compound, second compound 1 µM
[7] = second compound 0.00316 µM, first compound 0.0316 µM
[8] = second compound 0.00316 µM, first compound 0.1 µM
[9] = second compound 0.00316 µM, first compound 0.316 µM
[10] = second compound 0.00316 µM, first compound 1 µM
[11] = second compound 0.00316 µM, first compound 3.16 µM
[12] = second compound 0.00316 µM, first compound 10 µM
[13] = second compound 0.01 µM, first compound 0.0316 µM
[14] = second compound 0.01 µM, first compound 0.1 µM
[15] = second compound 0.01 µM, first compound 0.316 µM
[16] = second compound 0.01 µM, first compound 1 µM
[17] = second compound 0.01 µM, first compound 3.16 µM
[18] = second compound 0.01 µM, first compound 10 µM
[19] = second compound 0.0316 µM, first compound 0.0316 µM
[20] = second compound 0.0316 µM, first compound 0.1 µM
[21] = second compound 0.0316 µM, first compound 0.316 µM
[22] = second compound 0.0316 µM, first compound 1 µM
[23] = second compound 0.0316 µM, first compound 3.16 µM
[24] = second compound 0.0316 µM, first compound 10 µM
[25] = second compound 0.1 µM, first compound 0.0316 µM
[26] = second compound 0.1 µM, first compound 0.1 µM
[27] = second compound 0.1 µM, first compound 0.316 µM
[28] = second compound 0.1 µM, first compound 1 µM
[29] = second compound 0.1 µM, first compound 3.16 µM
[30] = second compound 0.1 µM, first compound 10 µM
[31] = second compound 0.316 µM, first compound 0.0316 µM
[32] = second compound 0.316 µM, first compound 0.1 µM
[33] = second compound 0.316 µM, first compound 0.316 µM
[34] = second compound 0.316 µM, first compound 1 µM
[35] = second compound 0.316 µM, first compound 3.16 µM
[36] = second compound 0.316 µM, first compound 10 µM
[37] = second compound 1 µM, first compound 0.0316 µM
[38] = second compound 1 µM, first compound 0.1 µM
[39] = second compound 1 µM, first compound 0.316 µM
[40] = second compound 1 µM, first compound 1 µM
[41] = second compound 1 µM, first compound 3.16 µM
[42] = second compound 1 µM, first compound 10 µM
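Further: compound exposure lasted seven days before viability was read.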
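Wherever viability, T/C is given: percent of vehicle DMSO treated spheroid viability so 100% = untreated.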

Cn1cnc2c(F)c(Nc3ccc(Br)cc3Cl)c(C(=O)NOCCO)cc21 + CC(Nc1ccc2c(c1)OCCn1cc(N3C(=O)OCC3C(F)F)nc1-2)C(N)=O
IC50 [1]: 0.0496 µM
IC50 [2]: 0.0299 µM
IC50 [3]: 0.0654 µM
IC50 [4]: 0.0274 µM
IC50 [5]: 0.0183 µM
IC50 [6]: < 0.00949 µM
viability, T/C (second compound 0.00316 µM, first compound 0.00949 µM): 86.3%
viability, T/C (second compound 0.00316 µM, first compound 0.03 µM): 57.2%
viability, T/C (second compound 0.00316 µM, first compound 0.0949 µM): 39.2%
viability, T/C (second compound 0.00316 µM, first compound 0.3 µM): 30.1%
viability, T/C (second compound 0.00316 µM, first compound 0.949 µM): 20.9%
viability, T/C (second compound 0.00316 µM, first compound 3 µM): 16.8%
viability, T/C (second compound 0.01 µM, first compound 0.00949 µM): 71.2%
viability, T/C (second compound 0.01 µM, first compound 0.03 µM): 50.9%
viability, T/C (second compound 0.01 µM, first compound 0.0949 µM): 33.8%
viability, T/C (second compound 0.01 µM, first compound 0.3 µM): 26.5%
viability, T/C (second compound 0.01 µM, first compound 0.949 µM): 26.5%
viability, T/C (second compound 0.01 µM, first compound 3 µM): 17.9%
viability, T/C (second compound 0.0316 µM, first compound 0.00949 µM): 79.1%
viability, T/C (second compound 0.0316 µM, first compound 0.03 µM): 65.3%
viability, T/C (second compound 0.0316 µM, first compound 0.0949 µM): 38.8%
viability, T/C (second compound 0.0316 µM, first compound 0.3 µM): 34.3%
viability, T/C (second compound 0.0316 µM, first compound 0.949 µM): 23.8%
viability, T/C (second compound 0.0316 µM, first compound 3 µM): 15.8%
viability, T/C (second compound 0.1 µM, first compound 0.00949 µM): 58%
viability, T/C (second compound 0.1 µM, first compound 0.03 µM): 46.4%
viability, T/C (second compound 0.1 µM, first compound 0.0949 µM): 39.7%
viability, T/C (second compound 0.1 µM, first compound 0.3 µM): 23.1%
viability, T/C (second compound 0.1 µM, first compound 0.949 µM): 16.8%
viability, T/C (second compound 0.1 µM, first compound 3 µM): 18.3%
viability, T/C (second compound 0.316 µM, first compound 0.00949 µM): 56.4%
viability, T/C (second compound 0.316 µM, first compound 0.03 µM): 45.3%
viability, T/C (second compound 0.316 µM, first compound 0.0949 µM): 22.7%
viability, T/C (second compound 0.316 µM, first compound 0.3 µM): 19%
viability, T/C (second compound 0.316 µM, first compound 0.949 µM): 16.8%
viability, T/C (second compound 0.316 µM, first compound 3 µM): 12.7%
viability, T/C (second compound 1 µM, first compound 0.00949 µM): 44.3%
viability, T/C (second compound 1 µM, first compound 0.03 µM): 31.3%
viability, T/C (second compound 1 µM, first compound 0.0949 µM): 20.7%
viability, T/C (second compound 1 µM, first compound 0.3 µM): 17.4%
viability, T/C (second compound 1 µM, first compound 0.949 µM): 17.4%
viability, T/C (second compound 1 µM, first compound 3 µM): 12%

Cn1ncnc1[C@H]1c2n[nH]c(=O)c3cc(F)cc(c23)N[C@@H]1c1ccc(F)cc1
viability, T/C (compound 0.000316 µM): 91.7% [middle of 4 runs]
viability, T/C (compound 0.001 µM): 113% and 106% (2×) and 109%
viability, T/C (compound 0.01 µM): 101% [middle of 4 runs]
viability, T/C (compound 0.0316 µM): 94.7% [middle of 4 runs]
viability, T/C (compound 0.1 µM): 97.3% [middle of 4 runs]
IC50 (curve of compound): > 0.1 µM

C=CC(=O)N1CCN(c2nc(=O)n(-c3c(C)ccnc3C(C)C)c3nc(-c4c(O)cccc4F)c(F)cc23)C(C)C1 (configuration not stated) + COc1c(OCCCN2CCOCC2)ccc2c3n(c(=NC(=O)c4cnc(N)nc4)nc12)CCN3
IC50 [1]: > 10 µM
IC50 [2]: > 10 µM
IC50 [3]: > 10 µM
IC50 [4]: 2.4 µM
IC50 [5]: < 0.0316 µM
IC50 [6]: < 0.0316 µM
viability, T/C [7]: 94%
viability, T/C [8]: 108%
viability, T/C [9]: 93.9%
viability, T/C [10]: 91%
viability, T/C [11]: 104%
viability, T/C [12]: 109%
viability, T/C [13]: 100%
viability, T/C [14]: 96%
viability, T/C [15]: 92.5%
viability, T/C [16]: 94.9%
viability, T/C [17]: 102%
viability, T/C [18]: 93.2%
viability, T/C [19]: 93.1%
viability, T/C [20]: 83.5%
viability, T/C [21]: 86.7%
viability, T/C [22]: 71.7%
viability, T/C [23]: 82.7%
viability, T/C [24]: 65.9%
viability, T/C [25]: 56.9%
viability, T/C [26]: 47.5%
viability, T/C [27]: 61.2%
viability, T/C [28]: 49.3%
viability, T/C [29]: 67%
viability, T/C [30]: 33%
viability, T/C [31]: 32.7%
viability, T/C [32]: 31.7%
viability, T/C [33]: 34.5%
viability, T/C [34]: 34.7%
viability, T/C [35]: 28.1%
viability, T/C [36]: 32.9%
viability, T/C [37]: 29.3%
viability, T/C [38]: 38.8%
viability, T/C [39]: 38.5%
viability, T/C [40]: 33%
viability, T/C [41]: 32.5%
viability, T/C [42]: 44.1%

Cn1ncc(Cl)c1-c1cc(C(=O)NC(CN)Cc2cccc(F)c2)sc1Cl (configuration not stated) + COc1c(OCCCN2CCOCC2)ccc2c3n(c(=NC(=O)c4cnc(N)nc4)nc12)CCN3
IC50 [1]: 1.68 µM
IC50 [2]: 1.18 µM
IC50 [3]: 1.04 µM
IC50 [4]: 0.0572 µM
IC50 [5]: < 0.0316 µM
IC50 [6]: < 0.0316 µM
viability, T/C [7]: 103%
viability, T/C [8]: 114%
viability, T/C [9]: 60.6%
viability, T/C [10]: 63.7%
viability, T/C [11]: 49.3%
viability, T/C [12]: 32.8%
viability, T/C [13]: 78.7%
viability, T/C [14]: 86.6%
viability, T/C [15]: 65.5%
viability, T/C [16]: 50.9%
viability, T/C [17]: 41.1%
viability, T/C [18]: 28.5%
viability, T/C [19]: 70.7%
viability, T/C [20]: 71.3%
viability, T/C [21]: 68%
viability, T/C [22]: 50.4%
viability, T/C [23]: 30.6%
viability, T/C [24]: 25%
viability, T/C [25]: 55%
viability, T/C [26]: 43%
viability, T/C [27]: 41.7%
viability, T/C [28]: 37.8%
viability, T/C [29]: 25.3%
viability, T/C [30]: 27%
viability, T/C [31]: 35.5%
viability, T/C [32]: 30.2%
viability, T/C [33]: 30.9%
viability, T/C [34]: 28.6%
viability, T/C [35]: 26.8%
viability, T/C [36]: 20.9%
viability, T/C [37]: 33.5%
viability, T/C [38]: 26.9%
viability, T/C [39]: 34.2%
viability, T/C [40]: 34.5%
viability, T/C [41]: 32.6%
viability, T/C [42]: 21.6%
